Bridge positions count the residues as written; N and C are the ends. Peptide text beside a SMILES is read from it.
Key:
Homo sapiens [1] = species on record: Homo sapiens; assay: Tested for induction of interleukin-1 production from human peripheral blood mononuclear cell (PBMC) of 2x10 e6 cells at 1 ug/mL; assay type: functional
Homo sapiens [2] = species on record: Homo sapiens; assay: Tested for induction of interleukin-1 production from human monocyte of 1x 10 e5 cells at 10 ug/mL; assay type: functional
HeLa [3] = assay: Tested for cytotoxicity index against HeLa cell line by MTT method at 1.0 ug/mL concentration; assay type: functional, Homo sapiens
HeLa [4] = assay: Tested for cytotoxicity index against HeLa cell line by MTT method at 0.1 ug/mL concentration; assay type: functional, Homo sapiens
HEp-2 [5] = assay: Tested for cytotoxicity index against HEP-2 cell line by MTT method at 0.1 ug/mL concentration; assay type: functional, Homo sapiens
HEp-2 [6] = assay: Tested for cytotoxicity index against HEP-2 cell line by MTT method at 1.0 ug/mL concentration; assay type: functional, Homo sapiens
Homo sapiens [7] = species on record: Homo sapiens; assay: Tested for induction of interleukin-1 from human peripheral blood mononuclear cell (PBMC) of 2x10 e6 cells at 1 ug/mL; assay type: functional

CC(C)C[C@@H]1NC(=O)[C@H](CCC(N)=O)NC(=O)[C@@H](N)CC(=O)NCCCC[C@@H](C(=O)NCC(=O)O)NC(=O)[C@H](CO)NC1=O (H-DQLSKG-OH; lactam 1-5)
IL-1 production (Homo sapiens [1]): 579 pg/mL | IL-1 production (Homo sapiens [2]): 1047 pg/mL

COc1cccc2c1C(=O)c1c(O)c3c(c(O)c1C2=O)C[C@@](O)(C(=O)CO)C[C@@H]3O[C@H]1C[C@H](N)[C@H](O)[C@H](C)O1 [DOXORUBICIN]
Cytotoxicity index (HeLa [3]): 96.6 | Cytotoxicity index (HeLa [4]): 50.6 | Cytotoxicity index (HEp-2 [5]): 39 | Cytotoxicity index (HEp-2 [6]): 75.5

H-KGDRLS-OH [TNF-ALPHA]
IL-1 production (Homo sapiens [7]): 741 pg/mL

Source: ChEMBL document CHEMBL1126577, “Studies of the synthesis, immunology, and cytotoxicity of a cyclic octapeptide corresponding to TNF-alpha-(59-66)” (1993)
